The NIST ThermoML archive (doi:10.1016/j.fluid.2006.05.015)
Numbers after ± are expanded uncertainties.

Settings: Fluid (supercritical or subcritical phases), Constant-volume piezometry

`O` [water] showed a mass density (299.25 K, 5182 kPa) of 999.2 ± 1.2 kg/m3, a mass density (299.25 K, 31060 kPa) of 1010.4 ± 1.2 kg/m3 and a mass density (349.12 K, 8540 kPa) of 977.86 ± 1.2 kg/m3. It also gave a mass density (349.12 K, 24440 kPa) of 984.93 ± 1.2 kg/m3, a mass density (399.57 K, 3183 kPa) of 939.45 ± 1.1 kg/m3 and a mass density (399.57 K, 30090 kPa) of 952.6 ± 1.2 kg/m3. For the same molecule, the mass density (438.94 K, 6455 kPa) was 905.35 ± 1.1 kg/m3, the mass density (438.94 K, 27860 kPa) was 917.35 ± 1.2 kg/m3 and the mass density (494.18 K, 8890 kPa) was 844.81 ± 1.1 kg/m3. The mass density (494.18 K, 29240 kPa) was 859.91 ± 1.1 kg/m3, the mass density (555.43 K, 9803 kPa) was 751.67 ± 0.95 kg/m3 and the mass density (555.43 K, 27940 kPa) was 777.34 ± 1 kg/m3. For the same molecule, the mass density (617.27 K, 16300 kPa) was 603.42 ± 0.79 kg/m3 and the mass density (617.27 K, 28080 kPa) was 653.82 ± 0.88 kg/m3.
